Experimental data from patent publication EP0998924A1, “ANTITUMOR AGENTS” (MEIJI MILK PRODUCTS COMPANY LIMITED, priority 1997, dated 1999).

System: topoisomerase II
Experiment: Measurement of topoisomerase II inhibitory activity (kDNA decatenation, agarose gel electrophoresis and densitometry)
Format: biochemical, rat
Method: Test Example 1 Measurement of Topoisomerase II Inhibitory Activity
(A) Extraction of crude topoisomerase II from rat infant brain nuclei (IBN)
IBN (11.98 mg/ml in 50% glycerol) (4.2 µl) was fractionated and subjected to centrifugation (3,000 × g, one minute), to thereby remove glycerol. The thus-obtained pellet was suspended in a nuclear extraction buffer (20 mM Tris-HCl (pH 7.5), 0.3 M NaCl, 140 mM β-Me, […], 20 mM PMSF) (10 µl), and the suspension was incubated in ice for 30 minutes. Subsequently, the suspension was subjected to centrifugation (10,000 × g, 10 minutes) and supernatant was fractionated, to thereby obtain crude topoisomerase II. The thus-obtained topoisomerase II was diluted on the basis of activity.
(B) Dilution of purified topoisomerase II (Top GEN, Inc)
Topoisomerase II (Top GEN, Inc) was diluted with the aforementioned nuclear extraction buffer, so as to attain a concentration of 0.75 unit/ml.
A test sample (1 µl) and a buffer (18 µl) containing a mixture of required amounts of Milli Q, 4 × topoisomerase II buffer (250 mM Tris-HCl (pH 7.9), 600 mM KCl, 50 mM MgCl2, 0.5 mM EDTA, 2.5 mM ATP, 150 mg/ml BSA), and k DNA (312 ng/ml) were added to an Eppendorf tube, and the resultant mixture was vortexed and lightly centrifuged. Subsequently, diluted crude topoisomerase II or diluted purified topoisomerase (1 µl) was added to the mixture, and the mixture was vortexed and lightly centrifuged. (Meanwhile, instead of such topoisomerase II, Milli Q (1 µl) and 50% DMSO (1 µl) were added to a reaction system prepared as a control, which system contains neither enzyme nor xanthone derivative, and 50% DMSO (1 µl) was added to a reaction system containing no xanthone derivative.)
The Eppendorf tube containing crude topoisomerase II and the Eppendorf tube containing purified topoisomerase II were allowed to stand for 30 minutes at 30°C and 37°C, respectively. Subsequently, SDS/PK/BJ (4 µl) was added to both of the tubes in ice, and both were allowed to stand at 50°C for five minutes, vortexed, and lightly centrifuged. After being allowed to stand again at 50°C for 30 minutes, they were vortexed and lightly centrifuged.
(C) Agarose gel electrophoresis and densitometry
The above-treated mixture was subjected to agarose gel electrophoresis (-EtBr 50 V) by use of a 1 × TBE buffer for electrophoresis (89 mM Tris Base/89 mM boric acid/2 mM EDTA2Na). After electrophoresis, gel staining was performed by use of 1 × TBE ([…]). After being decolorized, the gel was irradiated with UV rays, and bands on the gel were observed. The concentration of the agarose gel was 0.8%.
The amount of reacted enzyme was quantified by transforming the depth of color of the bands on the gel into numerical values by use of a computer (Gel Plotting Macros installed in NIH Image). Data of bands of mini-circle DNA were processed by a computer for conversion into numerical values and calculation, to thereby obtain residual activity (%).

[1] = test sample concentration 100 µg/ml
[2] = test sample concentration 500 µg/ml
[3] = test sample concentration 0.5 µg/ml
[4] = test sample concentration 1 µg/ml
[5] = test sample concentration 50 µg/ml
[6] = test sample concentration 10 µg/ml

Compound | Residual activity (%) [1] | Residual activity (%) [2] | Residual activity (%) [3] | Residual activity (%) [6] | other results
Oc1ccc(C=CC=Cc2ccc(O)cc2)cc1 [4,4-(1,3-Butadiene-1,4-diyl)bis-phenol, 4,4-(1,3-butadiene-1,4-diyl)bis-phenol] | 28% | 0% | – | – | –
Oc1ccc([C@H]2c3c(O)cc4c5c3[C@@H]([C@@H](c3ccc(O)cc3)c3c(O)cc(O)cc3[C@@H]5[C@@H](c3ccc(O)cc3)O4)[C@@H]2c2cc(O)cc(O)c2)cc1 [Davidiol A, davidiol A] | 3% | 2% | – | – | –
Oc1ccc([C@H]2Oc3cc(O)cc4c3[C@@H]2c2cc(O)cc3c2[C@@H](c2cc(O)cc5c2[C@@H]4[C@H](c2ccc(O)cc2)O5)[C@H](c2ccc(O)cc2)O3)cc1 [α-Viniferin, α-viniferin] | – | – | 41% | – | Residual activity (%) [4]: 38%; Residual activity (%) [5]: 0%
hopeaphenol | 4% | 1% | – | – | –
kobophenol A | – | – | 68% | 59% | Residual activity (%) [5]: 18%
leachianol A | 1% | 2% | – | – | –
leachianol B | 1% | 1% | – | – | –
miyabenol A | – | – | 32% | 0% | Residual activity (%) [4]: 13%
miyabenol C | – | – | 57% | 0% | Residual activity (%) (test sample concentration 2 µg/ml): 42%
